Consider 77 molecules from the METLIN SMRT retention time set (Domingo-Almenara et al. 2019).

Molecules are shown by their SMILES.

A short description of this data set: gradient 5% acetonitrile 3 min, to 50% in 2 min, to 85% in 15 min, held 3 min, 100 µL/min. To be noted: column: Zorbax Extend-C18 2.1 x 50 mm; eluents: water / acetonitrile, 0.1% formic acid. The method in brief:
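Using water and acetonitrile that each contained 0.1% formic acid, mixtures of ~100 pure standards were separated at 100 μL/min on a Zorbax Extend-C18 column (2.1 × 50 mm, 1.8 μm). The HPLC fed a quadrupole time-of-flight mass spectrometer working in positive and negative ionization mode, with dead and dwell volumes of 40 μL and 900 μL. Data were acquired over 3 months. Retention time was read from computationally picked adduct peaks after manual inspection of each.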
`C#CCC(Cc1cnc2nc(N)nc(N)c2n1)c1ccc(C(=O)N[C@@H](CCC(=O)O)C(=O)O)cc1` (some centres not stated) registered an RP-LC retention time of 619 s.

For the molecule `COc1ccc(C)cc1NC(=O)N1CCC(c2nc(C(=O)N3CCCC3)c(C)o2)CC1`, the RP-LC retention time stood at 865 s.

With `CCOC(=O)c1c(C)[nH]c2cc(Br)c(O)cc12`, the RP-LC retention time came to 768 s.

Consider `O=C(NCc1ccc(Br)cc1)C1CCN(c2ncnc3c2oc2ccccc23)CC1`, for which the RP-LC retention time is 982 s.

The molecule `CCN1CCn2cc(S(=O)(=O)Nc3cccc(C)c3)cc2C1=O` yielded an RP-LC retention time of 736 s.

In turn, `Cc1cccc(NS(=O)(=O)c2cc3c(s2)CCN(C(=O)C2CCC2)C3)c1C` had an RP-LC retention time of 942 s.

For `CC1Oc2ccc(-c3csc(NC(=O)COc4ccc(Cl)cc4)n3)cc2N(C)C1=O` (configuration not stated), the RP-LC retention time was determined as 1070 s.

For `CCOc1ccccc1-c1noc(CN2C(=O)C(C)Oc3ccccc32)n1` (configuration not stated), the RP-LC retention time amounted to 1130 s.

`CCOC(=O)c1c(C)[nH]c(C(=O)CC(=O)OC)c1C` showed an RP-LC retention time of 696 s.

In the case of `COc1ccc(NC(=O)N2CCCC2c2nc(-c3cccc(F)c3)no2)cc1` (configuration not stated), the RP-LC retention time came to 842 s.

`CCCc1ccc(S(=O)(=O)N2CCC3(CCC(CN4CCN(C)CC4)O3)CC2)cc1` (configuration not stated) registered an RP-LC retention time of 654 s.

As for `COc1ccc(N2CCN(C(=O)c3c(OC)cc(=O)n4c3CCCC4)CC2)cc1`, the RP-LC retention time came to 660 s.

On to `CN(C)c1ccc(CNC(=O)C2CCN(c3cc(N4CCCCC4)ncn3)CC2)cc1`, for which the RP-LC retention time was 559 s.

`CCOC(=O)c1cccc(NC(=O)C2CCCN(c3ccc(=O)n(-c4ccc(F)cc4)n3)C2)c1` (configuration not stated) yielded an RP-LC retention time of 933 s.

`CCN1CCn2c(nc3cc(C(=O)NCc4ccccc4C(F)(F)F)ccc32)C1=O` returned an RP-LC retention time of 741 s.

In the case of `Cc1ccc(C2Cn3cnc(C(=O)N4CCC(C(=O)NCc5ccccc5Cl)CC4)c3CO2)cc1` (configuration not stated), the RP-LC retention time stood at 823 s.

As to `CC(C)CC(=O)N(CC(=O)N(Cc1ccc2c(c1)OCO2)Cc1ccco1)CC1CCCO1` (configuration not stated), the RP-LC retention time is 866 s.

On to `O=C(NCCc1cccnc1)C1CCc2nc(N3CCCC3)ncc2C1` (configuration not stated), for which the RP-LC retention time stood at 532 s.

`COCC(=O)N1CCc2c(c(-c3nc(C4CC4)no3)nn2C)C1` returned an RP-LC retention time of 653 s.

With `Cc1noc(CNC(=O)C2CCN(C(=O)Cc3ccccc3Cl)CC2)n1`, the RP-LC retention time came to 590 s.

The molecule `COc1ccc(C(=O)Nc2nnc(SCc3nnc(-c4ccc5c(c4)OCO5)o3)s2)cc1OC` returned an RP-LC retention time of 834 s.

Take `CN1C(=O)CN=C(c2ccccc2)c2cc([N+](=O)[O-])ccc21`: the RP-LC retention time was found to be 869 s.

As for `CCn1cc(S(=O)(=O)N2C[C@@H](COC)[C@H](C(=O)NC)C2)cn1`, the RP-LC retention time turned out to be 603 s.

Take `CCCN1CCN(Cc2nc(-c3ccc(N4CCSCC4)nc3)no2)CC1`: the RP-LC retention time stood at 615 s.

Molecule `Cc1nn(C(C)C(=O)Nc2cccc(F)c2)c(=O)c2c(-n3cccc3)n(-c3ccccc3)nc12` (configuration not stated) came in with an RP-LC retention time of 1120 s.

The molecule `COc1ccccc1N1CCN(CCCNS(=O)(=O)c2ccc3c(c2)CCCC(=O)N3)CC1` returned an RP-LC retention time of 616 s.

The molecule `Cc1ccc(-c2nc3n(CC(=O)NCC4CCCO4)c4c(c(=O)n3n2)CCC4)cc1` (configuration not stated) registered an RP-LC retention time of 720 s.

The molecule `CCOc1ccccc1NC(=O)Cn1nc(N2CCC(C)CC2)c2ccccc2c1=O` registered an RP-LC retention time of 1290 s.

Molecule `Cc1ccccc1CC(=O)NC(C)C(=O)Nc1nc2ccccc2[nH]1` (configuration not stated) registered an RP-LC retention time of 654 s.

`Cc1nc(-c2cc(S(=O)(=O)N(Cc3ccccc3)C(C)C)c(C)s2)sc1C`: the RP-LC retention time came out at 978 s.

Consider `CCOC(=O)c1c(C)oc2nc(C)nc(NCCc3ccc(OC)c(OC)c3)c12`, for which the RP-LC retention time amounted to 1050 s.

The molecule `O=C(CCc1cc2ccccc2[nH]c1=O)N1CCN(C(=O)c2ccco2)CC1` had an RP-LC retention time of 638 s.

The molecule `Cc1csc(-c2cc(S(=O)(=O)NCCc3ccc(S(N)(=O)=O)cc3)c(C)n2C)n1` had an RP-LC retention time of 769 s.

Molecule `Cc1ccc2c(c1)OCC(=O)N2Cc1nc(-c2cccc(Br)c2)no1` displayed an RP-LC retention time of 1180 s.

Molecule `CCc1nc(-c2csc(S(=O)(=O)N3CCCC(C(=O)NCc4ccc(Cl)cc4)C3)c2)no1` (configuration not stated) displayed an RP-LC retention time of 1030 s.

Regarding `CSc1ccc(CNC(=O)Cn2cnc3nc4c(cc3c2=O)CC(C)CC4)cc1` (configuration not stated), the RP-LC retention time was found to be 781 s.

The molecule `COc1ccc(N2CCN(c3cc(SCC(=O)Nc4ccc(C)c(Cl)c4)ncn3)CC2)cc1` came in with an RP-LC retention time of 1100 s.

`CCOC(=O)C1CCN(C(=O)Cn2nc3cc(-c4ccccc4)nc(C)n3c2=O)CC1` registered an RP-LC retention time of 858 s.

With `O=C(Cc1cccc(Cl)c1)N1CC2CN(S(=O)(=O)c3cccc(F)c3)CC(C1)O2`, the RP-LC retention time is 900 s.

Molecule `O=C(NCc1ccccc1F)c1ccc(NC(=O)C2CC2)cc1N1CCOCC1` came in with an RP-LC retention time of 995 s.

Molecule `Cc1ccc(NC(=O)C2CCN(C(=O)c3ncn4c3COC(c3ccc(F)cc3)C4)CC2)cc1C` (configuration not stated) registered an RP-LC retention time of 848 s.

Turning to `COc1cc(Cl)c(C)cc1NC(=O)Cn1ncc2c(N3CCN(c4ccccn4)CC3)ncnc21`, the RP-LC retention time was determined as 678 s.

For `COc1cc(OC)cc(-c2noc(CCn3nc(-c4ccc(Cl)cc4)ccc3=O)n2)c1`, the RP-LC retention time was 1060 s.

In the case of `O=C(NC1CCCCC1)C1CCN(c2cncnc2N2CCCCC2)CC1`, the RP-LC retention time worked out at 672 s.

Take `Cc1cccc(-c2ncccc2CNS(=O)(=O)c2ccc(F)c(F)c2)c1`: the RP-LC retention time came out at 755 s.

In turn, `Cc1cc(NCc2ccccn2)n2c(nc3ccccc32)c1C#N` returned an RP-LC retention time of 590 s.

In turn, `CCN(CC)C(=O)c1cnc2nc(C)ccc2c1Nc1ccc(C(C)=O)cc1` had an RP-LC retention time of 589 s.

`O=C(Nc1ccc(Cl)cc1)C1CCN(C(=O)c2ncn3c2COC(c2ccccc2)C3)CC1` (configuration not stated): the RP-LC retention time amounted to 859 s.

Regarding `O=C(CN1CCN(c2ccccn2)CC1)Nc1ccc(F)c(F)c1`, the RP-LC retention time amounted to 576 s.

With `Cc1nncn1C1CN(C(=O)Nc2ccc(Cl)cc2C(F)(F)F)C1`, the RP-LC retention time is 662 s.

Consider `Cc1ccc(NC(=O)Cn2nc3c(Oc4ccc(Cl)cc4)nccn3c2=O)cc1`, for which the RP-LC retention time was 864 s.

In turn, `Cc1noc(CNC(=O)CCCN2C(=O)c3ccccc3C2=O)n1` came in with an RP-LC retention time of 633 s.

As for `O=C(NC1CCN(c2cc(-c3ccc(F)cc3)[nH]n2)C1)c1ccc2c(c1)OCO2` (configuration not stated), the RP-LC retention time was determined as 695 s.

`O=C(CCc1c(-c2ccc(Cl)cc2)nc2ccccn12)Nc1cccc(F)c1`: the RP-LC retention time stood at 795 s.

`Cn1c(C(=O)NC2CC2)cc2c1CCN(Cc1ccc(F)cc1)C2` had an RP-LC retention time of 590 s.

The molecule `CS(=O)(=O)N1CCC(C(=O)Nc2ccc(Oc3ccccc3)cc2)Oc2ccccc21` (configuration not stated) yielded an RP-LC retention time of 1030 s.

As to `CCC1CN2C=NC(N3CCN(C(=O)Nc4ccc(OC)cc4)CC3)=CC2=N1` (configuration not stated), the RP-LC retention time was found to be 600 s.

As for `O=c1ccn(-c2ccc(F)c(F)c2)nc1-c1nc(-c2ccc3c(c2)OCO3)no1`, the RP-LC retention time was found to be 877 s.

In turn, `O=C(NC1CCCCC1)C1CCCN(S(=O)(=O)Cc2ccccc2Cl)C1` (configuration not stated) yielded an RP-LC retention time of 967 s.

In turn, `COCCOC(=O)C1=C(C)NC(C)=C(C(=O)OC/C=C/c2ccccc2)C1c1cccc([N+](=O)[O-])c1` (configuration not stated) returned an RP-LC retention time of 1210 s.

Molecule `COc1ccc(-c2noc(N3CCC(C(=O)NCCC4=CCCCC4)CC3)n2)cc1` had an RP-LC retention time of 1050 s.

Molecule `Cc1nc2ccc(C(=O)NC(C)C)cc2nc1C` had an RP-LC retention time of 649 s.

As to `CCN1CCN(S(=O)(=O)c2cc(-c3nnc(C4CCCC4)o3)co2)CC1`, the RP-LC retention time came to 637 s.

Take `COc1cccc(N2CCCn3c2nc2c3c(=O)n(CC(=O)O)c(=O)n2C)c1`: the RP-LC retention time was 671 s.

Take `Cc1sc2ccn(C)c(=O)c2c1C(=O)NC1CCCCCC1`: the RP-LC retention time was found to be 804 s.

In the case of `COc1ccc(Cl)cc1-c1nc(-c2ccc3oc(C)nc3c2)no1`, the RP-LC retention time was 1060 s.

With `CCCn1c(CCNC(=O)c2cc(F)ccc2F)nc2cccnc21`, the RP-LC retention time is 673 s.

In turn, `Cc1ccc(NC(=O)COc2cc(C)nc(N3CCN(c4ccccc4)CC3)n2)c(C)c1` displayed an RP-LC retention time of 914 s.

As to `O=C(NCC1CCCO1)c1ccc(Cn2nc(N3CCN(c4ccccc4)CC3)ccc2=O)o1` (configuration not stated), the RP-LC retention time was 737 s.

Turning to `O=C1CC(c2ccccc2)Cc2[nH]c(=O)c(C(=O)Nc3cccc(C(F)(F)F)c3)cc21` (configuration not stated), the RP-LC retention time is 1020 s.

For the molecule `O=[N+]([O-])c1cccc(-c2nnc(-c3ccccc3)o2)c1`, the RP-LC retention time worked out at 887 s.

Molecule `Cn1nc(C(=O)Nc2ccccc2)c2c1CCN(C(=O)CCC(=O)NC1CC1)C2` returned an RP-LC retention time of 678 s.

As for `O=C(Nc1ccc(N2CCOCC2)cc1)C1CCCN(c2ncc(-c3ccccc3)cn2)C1` (configuration not stated), the RP-LC retention time amounted to 925 s.

`COc1cc(Cl)ccc1C(=O)Nc1ccc2c(c1)Sc1ncccc1C(=O)N2C` came in with an RP-LC retention time of 915 s.

On to `Cc1cc(-c2nnc(-c3ccc(F)cc3)o2)c(C)n1CC(=O)Nc1ccc2c(c1)OCCO2`, for which the RP-LC retention time is 916 s.

As for `COc1ccc(CCNC(=O)CSC2CCc3ccccc3NC2=O)cc1OC` (configuration not stated), the RP-LC retention time is 708 s.

For the molecule `O=C(NCc1ccccc1)C1CC(=O)N(c2ccc3c(c2)CCN3C(=O)C2CCC2)C1` (configuration not stated), the RP-LC retention time came to 769 s.
